Measured values published in article PMC10799935, “Discovery of a peripheral 5HT2A antagonist as a clinical candidate for metabolic dysfunction-associated steatohepatitis” (Nature Communications, 2024).
Several values for one entry are separate records, joined by “and”; a condition that tells them apart may be missing. Equal values may be shown once.

How the values were obtained:
[1] = tested on: HFD-fed C57BL/6J mice; assay: DIO mice: tissue weight; assay type: in vivo, mouse; conditions: for Tissue Weight Kidney / Tissue Weight Liver / Tissue Weight Pancreas / Tissue Weight eWAT / Tissue Weight iWAT: PO; for Predicted (LS) mean diff. (Vehicle vs. 11c), Tissue Weight: Dunnett's multiple comparisons test; for Significant? (Vehicle vs. 11c), Tissue Weight: Dunnett's test, alpha 0.05; for Predicted (LS) mean 2 (11c group), Tissue Weight: test details, in g (unit assumed)
Text: For in vivo efficacy in DIO models and CDAHFD models, the experimental protocol for this study was approved by the Institutional Animal Care and Use Committee (IACUC) at the Korea Advanced Institute of Science and Technology (No. KA2023-027-v2) or Kyungpook National University (No. KNU-20200134). All relevant ethical guidelines were followed. C57BL/6 J male mice (11 weeks old) were purchased from the Charles River Japan and were housed in a specific pathogen-free barrier facility under a regular light-dark cycle (12-hour light/12-hour dark) at 24°C with 40–60% humidity. Food (standard chow diet, Envigo, 2018S) and water were provided ad libitum. […] Mice were euthanized by the method of cervical dislocation. The measurement of lean and fat mass in live mice was performed by a body composition analyzer (LF50 BCA-analyzer, Bruker). After 6 h of fasting, mice were sacrificed, and tissue samples were obtained.

[2] = molecular target: 5HT3 (Homo sapiens, UniProt P46098); assay: 5HT subtype selectivity: 5HT3; assay type: cell-based; conditions: concentration not given
5HT3, sequence (P46098 24-478): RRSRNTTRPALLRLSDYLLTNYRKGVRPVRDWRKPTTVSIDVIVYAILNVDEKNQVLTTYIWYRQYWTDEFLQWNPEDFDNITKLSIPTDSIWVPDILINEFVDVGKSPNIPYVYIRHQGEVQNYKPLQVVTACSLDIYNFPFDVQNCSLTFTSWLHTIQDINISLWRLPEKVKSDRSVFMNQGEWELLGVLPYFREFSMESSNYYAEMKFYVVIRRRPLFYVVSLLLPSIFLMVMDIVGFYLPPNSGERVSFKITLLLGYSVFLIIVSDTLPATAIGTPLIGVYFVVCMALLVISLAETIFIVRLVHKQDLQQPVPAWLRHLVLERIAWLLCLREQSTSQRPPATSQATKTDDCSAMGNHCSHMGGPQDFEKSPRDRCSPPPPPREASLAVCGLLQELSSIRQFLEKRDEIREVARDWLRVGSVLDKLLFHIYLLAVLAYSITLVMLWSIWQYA
Description: The derivatives were evaluated at a concentration of 1 μM for their antagonist activity on the 5HT2A receptor (Tables 1–3)[33],[34]. Human 5HT2A stably transfected HEK293 cells (a type of cell derived from kidney embryos)[20] were seeded in a 96-well plate (Costar; 3603) at a density of 9 × 10^4 in 100 μL of minimum essential medium (Welgene; LM007-86) containing 10% dialyzed fetal bovine serum (Gibco; 30067–334) and 1% penicillin/streptomycin (Gibco; 15140-122) and kept in a 37 °C incubator for 24 h. The cells were stained with 100 μL of cytosolic calcium dye using the FLIPR calcium 6 assay solution (Molecular devices, #R8190) supplemented with 2.5 mM probenecid (Sigma; P8761) and incubated for 1 h at 37 °C. After 1 h, the designated amount of the compound was treated in each well and incubated for another 1 h at 37 °C. Then, the cells were loaded in a Flexstation 3 microplate reader (Molecular Devices; FlexStaion) and 50 μL of 5 μM 5HT (serotonin hydrochloride, Sigma; H9523) was injected from a source plate (Nunc 96-well polystyrene conical bottom MicroWell Plate, Thermo; 249662) and the fluorescence intensity (Ex/Em-485nm/ 525 nm) was measured. (Supplementary Fig. 5) For determining the IC50 values of other 5HT subtypes, an Inhibition assay was performed by Eurofins Cerep (Study ID: FR095-0014987, FR095-0016438). […]

[3] = DIO mice, 5mpk, individual animals, 5 mg/kg
[4] = DIO mice, 10mpk, individual animals, 10 mg/kg

`Cc1nc2n(c(=O)c1CCN1CCC(=C3c4ccc(Cl)cc4CCc4cccnc43)CC1)CCCC2O` (centres unmarked) [Compound 11c] was tested, and the “Tissue Weight Kidney” value ([1]; DIO mice, 5mpk, group mean) was 0.17 g, the “Tissue Weight Liver” value ([1]; DIO mice, 5mpk, group mean) was 1.34 g and the “Tissue Weight Pancreas” value ([1]; DIO mice, 5mpk, group mean) was 0.39 g. For the same molecule, the “Tissue Weight eWAT” value ([1]; DIO mice, 5mpk, group mean) was 1.01 g, the “Tissue Weight iWAT” value ([1]; DIO mice, 5mpk, group mean) was 1.37 g and the “Tissue Weight Kidney” value [1, 3] was 0.166 g and 0.156 g and 0.168 g and 0.162 g and 0.198 g and 0.195 g and 0.164 g. For the same molecule, the “Tissue Weight Liver” value [1, 3] was 1.353 g and 1.128 g and 1.239 g and 1.293 g and 1.762 g and 1.451 g, the “Tissue Weight Pancreas” value [1, 3] was 0.398 g and 0.353 g and 0.255 g and 0.338 g and 0.634 g and 0.394 g and 0.387 g and the “Tissue Weight eWAT” value [1, 3] was 1.284 g and 1.045 g and 0.952 g and 0.74 g and 0.897 g and 0.939 g and 1.199 g. The “Tissue Weight iWAT” value [1, 3] was 1.826 g and 1.295 g and 1.198 g and 1.045 g and 1.186 g and 1.418 g and 1.644 g, the “Tissue Weight Kidney” value ([1]; DIO mice, 10mpk, group mean) was 0.18 g and the “Tissue Weight Liver” value ([1]; DIO mice, 10mpk, group mean) was 1.25 g. For the same molecule, the “Tissue Weight Pancreas” value ([1]; DIO mice, 10mpk, group mean) was 0.36 g, the “Tissue Weight eWAT” value ([1]; DIO mice, 10mpk, group mean) was 0.57 g and the “Tissue Weight iWAT” value ([1]; DIO mice, 10mpk, group mean) was 1.15 g. For the same molecule, the “Tissue Weight Kidney” value [1, 4] was 0.183 g and 0.162 g and 0.142 g and 0.267 g and 0.16 g, the “Tissue Weight Liver” value [1, 4] was 1.17 g and 1.368 g and 1.031 g and 1.332 g and 1.38 g and 1.246 g and the “Tissue Weight Pancreas” value [1, 4] was 0.302 g and 0.381 g and 0.318 g and 0.442 g and 0.387 g and 0.34 g. For the same molecule, the “Tissue Weight eWAT” value [1, 4] was 0.449 g and 0.747 g and 0.512 g and 0.764 g and 0.418 g, the “Tissue Weight iWAT” value [1, 4] was 0.774 g and 1.585 g and 1.202 g and 1.593 g and 1.007 g and 0.712 g and the “Tissue weight of inguinal white adipose tissue (iWAT)” value ([1]; DIO mice, vs vehicle) was “significantly decreased”. For the same molecule, the “Tissue weight of liver” value ([1]; DIO mice, vs vehicle) was “significantly decreased”, the “Predicted (LS) mean diff. (Vehicle vs. 11c), Tissue Weight” value ([1]; Kidney, 5mpk) was 0.01612 and the “Significant? (Vehicle vs. 11c), Tissue Weight” value (“Significant? (Vehicle vs. 11c)” for short) ([1]; Kidney, 5mpk) was “No”. For the same molecule, the “Predicted (LS) mean 2 (11c group), Tissue Weight” value (“Predicted (LS) mean 2 (11c group)” for short) ([1]; Kidney, 5mpk) was 0.1727, the “Predicted (LS) mean diff. (Vehicle vs. 11c), Tissue Weight” value ([1]; Kidney, 10mpk) was 0.006 and the “Significant? (Vehicle vs. 11c)” value ([1]; Kidney, 10mpk) was “No”. The “Predicted (LS) mean 2 (11c group)” value ([1]; Kidney, 10mpk) was 0.1828, the “Predicted (LS) mean diff. (Vehicle vs. 11c), Tissue Weight” value ([1]; Liver, 5mpk) was 0.2072 and the “Significant? (Vehicle vs. 11c)” value ([1]; Liver, 5mpk) was “No”. For the same molecule, the “Predicted (LS) mean 2 (11c group)” value ([1]; Liver, 5mpk) was 1.336, the “Predicted (LS) mean diff. (Vehicle vs. 11c), Tissue Weight” value ([1]; Liver, 10mpk) was 0.289 and the “Significant? (Vehicle vs. 11c)” value ([1]; Liver, 10mpk) was “Yes”. For the same molecule, the “Predicted (LS) mean 2 (11c group)” value ([1]; Liver, 10mpk) was 1.255, the “Predicted (LS) mean diff. (Vehicle vs. 11c), Tissue Weight” value ([1]; Pancreas, 5mpk) was 0.1064 and the “Significant? (Vehicle vs. 11c)” value ([1]; Pancreas, 5mpk) was “No”. The “Predicted (LS) mean 2 (11c group)” value ([1]; Pancreas, 5mpk) was 0.3941, the “Predicted (LS) mean diff. (Vehicle vs. 11c), Tissue Weight” value ([1]; Pancreas, 10mpk) was 0.1388 and the “Significant? (Vehicle vs. 11c)” value ([1]; Pancreas, 10mpk) was “No”. For the same molecule, the “Predicted (LS) mean 2 (11c group)” value ([1]; Pancreas, 10mpk) was 0.3617, the “Predicted (LS) mean diff. (Vehicle vs. 11c), Tissue Weight” value ([1]; eWAT, 5mpk) was -0.00381 and the “Significant? (Vehicle vs. 11c)” value ([1]; eWAT, 5mpk) was “No”. The “Predicted (LS) mean 2 (11c group)” value ([1]; eWAT, 5mpk) was 1.373, the “Predicted (LS) mean diff. (Vehicle vs. 11c), Tissue Weight” value ([1]; eWAT, 10mpk) was 0.2238 and the “Significant? (Vehicle vs. 11c)” value ([1]; eWAT, 10mpk) was “No”. For the same molecule, the “Predicted (LS) mean 2 (11c group)” value ([1]; eWAT, 10mpk) was 1.146, the “Predicted (LS) mean diff. (Vehicle vs. 11c), Tissue Weight” value ([1]; iWAT, 5mpk) was 0.08033 and the “Significant? (Vehicle vs. 11c)” value ([1]; iWAT, 5mpk) was “No”. For the same molecule, the “Predicted (LS) mean 2 (11c group)” value ([1]; iWAT, 5mpk) was 1.008, the “Predicted (LS) mean diff. (Vehicle vs. 11c), Tissue Weight” value ([1]; iWAT, 10mpk) was 0.5213 and the “Significant? (Vehicle vs. 11c)” value ([1]; iWAT, 10mpk) was “Yes”. The “Predicted (LS) mean 2 (11c group)” value ([1]; iWAT, 10mpk) was 0.567 and the “Selectivity 3: % inhibition” value [2] was -1%.
